Measurements: US20240002391A1, “4-ALKOXYPYRROLO[2,1-F][1,2,4]TRIAZINES AND PREPARATION AND USES THEREOF” (BioSplice Therapeutics, Inc., priority 2022, published 2024)

Key:
[1] = target: recombinant DYRK1A kinase (Homo sapiens (Human), UniProt Q13627); test: DYRK1A kinase assay (Ser/Thr 18 peptide Z-lyte FRET); format: biochemical; conditions: DYRK1A kinase activity, Z-lyte Ser/Thr 18 peptide, 15 μM ATP; method text calls the value IC50; read-out: EC50 (the source's name)
Method in brief: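 Kinase 0.25 μg/mL + ATP 15 μM + Ser/Thr 18 peptide 4 μM, 1 h RT with cpd (10 μM top, 1:3, 11 pts, n=2). Dev. reagent A 1 h RT. Ex 400, Em 455/520 ratio → % phos. → IC50, nonlinear fit.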

[2] = system: Tau phosphorylation at Thr212 (pThr212) in HEK293T cells transfected with DYRK1A and MAPT; test: Tau phosphorylation phosphoTau (Thr212) AlphaLISA assay in HEK293T cells transfected with DYRK1A and MAPT; format: cell-based; conditions: HEK-293T, HEK293T cells transiently transfected with human DYRK1A and MAPT, compound treatment 18-24 hours, read-out: pTau (Thr212) EC50
Protocol: Representative compounds were screened using the assay procedure for tau phosphorylation activity described below.
HEK293T cells (ATCC, CRL3216) cultured in DMEM (Thermo Fisher Scientific, 10566024) supplemented with 10% FBS (Coming, 35-011—CV) and Penicillin/Streptomycin (Thermo Fisher Scientific, 15140163) were seeded in a 75 cm^2 flask at 8.1×10^6 cells/flask. The HEK293T cells were then transiently transfected with 5 μg DYRK1A (NM_001396) human untagged clone (OriGene, SC314641) and 2.5 μg MAPT (441 a.a. Tau gene) (NM_005910) human untagged clone (OriGene, TP313312) using Lipofectamine 3000 (Thermo Fisher Scientific, L30000015) and incubated for 20-30 hours in a humidified incubator at 37° C. and 5% CO^2. Post-incubation, HEK293T cells transfected with the DYRK1A and MAPT expression vectors were harvested and seeded in BioCoat poly-D lysine coated 96-well plates (Coming, 354461) at 3×10^4 cells/well.
The above synthesized compounds were screened using the cell assay procedure to assess decreased Tau phosphorylation at Thr212 (pThr212) described below.
Each compound was dissolved in DMSO (Sigma-Aldrich, D8418-100 mL) as a 10 mM stock. 10 mM stocks were serially diluted 1:3, 10-point dose-response curve and added to the cells with a final concentration ranging from 20 μM to 1.1 nM. Cells were treated with compounds in duplicate and incubated for 18-24 hours in a humidified incubator at 37° C. and 5% CO^2.
Following the overnight compound treatment, cells were lysed with 1X Alpha Surefire Ultra Lysis Buffer (Perkin Elmer, ALSU-LB-100ML) complemented with 1X Halt Phosphatase Inhibitor Cocktail (Thermo Fisher Scientific, 78427) and 1X Halt Protease Inhibitor Cocktail (Thermo Fisher Scientific, 78438). Lysates were spun down at 12,000 g for 10 min to remove any cellular debris and 5 μL of lysates were dispensed into a 384-well Opti-Plate (Perkin Elmer, 6007290) for the measurement of Tau phosphorylation in the phosphoTau (Thr212) AlphaLISA assay. Donor antibody, biotinylated HT7Tau (Thermo Fisher Scientific, MN1000B), and acceptor antibody, pThr212Tau (Thermo Fisher Scientific, 44740G) were both added to the cell lysates at a final concentration of 3 nM and incubated for 1 hour at room temperature. Following incubation of the lysates with the donor and acceptor antibodies, anti-rabbit IgG(Fc specific) AlphaLISA acceptor beads (Perkin Elmer, AL104C) were added at a 10 ug/mL final concentration and incubated for 1 hour at room temperature protected from light. Lastly, AlphaScreen streptavidin donor beads (PerkinElmer, 6760002) were added at 40 ug/mL final concentration and incubated for 1 hour at room temperature protected from light. Plates were read at […] on the EnVision Multilabel Plate Reader (Perkin Elmer). The phospho-Tau (Thr212) AlphaLISA signal was used to plot, draw the curve fitting, and determine each compound's EC50 in Prism (GraphPad).

COc1nc(N[C@H]2CC[C@@](C)(O)CC2)nn2ccc(-c3cnc4nc(C)n(CC(F)F)c4c3)c12 [Compound 1, cis-4-((5-(1-(2,2-Difluoroethyl)-2-methyl-1H-imidazo[4,5-b]pyridin-6-yl)-4-methoxypyrrolo[2,1-f][1,2,4]triazin-2-yl)amino)-1-methylcyclohexan-1-ol]
IC50 [1]: 22.4 nM | EC50 [2]: 21.6 nM

COc1nc(N[C@H]2CC[C@](C)(O)CC2)nn2ccc(-c3ccc4nnn(C)c4c3)c12 [Compound 3, trans-4-((4-Methoxy-5-(1-methyl-1H-benzo[d][1,2,3]triazol-6-yl)pyrrolo[2,1-f][1,2,4]triazin-2-yl)amino)-1-methylcyclohexan-1-ol]
IC50 [1]: 1.5 nM | EC50 [2]: 197 nM

COc1nc(N[C@H]2CC[C@](C)(O)CC2)nn2ccc(-c3ccn4nccc4c3)c12 [Compound 20, trans-4-((4-Methoxy-5-(pyrazolo[1,5-a]pyridin-5-yl)pyrrolo[2,1-f][1,2,4]triazin-2-yl)amino)-1-methylcyclohexan-1-ol]
IC50 [1]: 3.4 nM | EC50 [2]: 107 nM

COc1nc(N[C@H]2CC[C@H](NC(C)=O)CC2)nn2ccc(-c3ccc4nccn4c3)c12 [Compound 54, N-(trans-4-((5-(Imidazo[1,2-a]pyridin-6-yl)-4-methoxypyrrolo[2,1-f][1,2,4]triazin-2-yl)amino)cyclohexyl)acetamide]
IC50 [1]: 1.2 nM | EC50 [2]: 25.7 nM

COc1nc(N[C@H]2CC[C@](C)(O)CC2)nn2ccc(-c3ccc4nccn4c3)c12 [Compound 56, trans-4-((5-(Imidazo[1,2-a]pyridin-6-yl)-4-methoxypyrrolo[2,1-f][1,2,4]triazin-2-yl)amino)-1-methylcyclohexan-1-ol]
IC50 [1]: 1.3 nM | EC50 [2]: 35.7 nM

COc1nc(N[C@H]2C[C@](C)(NC(C)=O)C2)nn2ccc(-c3ccc4ncnn4c3)c12 [Compound 192, N-(trans-3-((5-([1,2,4]Triazolo[1,5-a]pyridin-6-yl)-4-methoxypyrrolo[2,1-f][1,2,4]triazin-2-yl)amino)-1-methylcyclobutyl)acetamide]
IC50 [1]: 0.9 nM | EC50 [2]: 18.1 nM

COc1nc(N[C@H]2CC[C@](C)(O)CC2)nn2ccc(-c3ccc4ncnn4c3)c12 [Compound 194, trans-4-((5-([1,2,4]Triazolo[1,5-a]pyridin-6-yl)-4-methoxypyrrolo[2,1-f][1,2,4]triazin-2-yl)amino)-1-methylcyclohexan-1-ol]
IC50 [1]: 2.2 nM | EC50 [2]: 107 nM

COc1nc(N[C@H]2C[C@](C)(O)C2)nn2ccc(-c3ccc4nnn(C)c4c3)c12 [Compound 200, trans-3-((4-Methoxy-5-(1-methyl-1H-benzo[d][1,2,3]triazol-6-yl)pyrrolo[2,1-f][1,2,4]triazin-2-yl)amino)-1-methylcyclobutan-1-ol]
IC50 [1]: 3.8 nM | EC50 [2]: 130 nM

CNC(=O)[C@]1(C)C[C@@H](Nc2nc(OC)c3c(-c4ccc5nnn(C)c5c4)ccn3n2)C1 [Compound 210, trans-3-((4-Methoxy-5-(1-methyl-1H-benzo[d][1,2,3]triazol-6-yl)pyrrolo[2,1-f][1,2,4]triazin-2-yl)amino)-N,1-dimethylcyclobutane-1-carboxamide]
IC50 [1]: 1.5 nM | EC50 [2]: 19.7 nM

COc1nc(N[C@H]2CC[C@](C)(O)CC2)nn2ccc(-c3cnc4nccn4c3)c12 [Compound 257, trans-4-((5-(Imidazo[1,2-a]pyrimidin-6-yl)-4-methoxypyrrolo[2,1-f][1,2,4]triazin-2-yl)amino)-1-methylcyclohexan-1-ol]
IC50 [1]: 0.4 nM | EC50 [2]: 15.1 nM

CC[C@]1(O)CC[C@H](Nc2nc(OC)c3c(-c4cnc5nccn5c4)ccn3n2)CC1 [Compound 258, trans-1-Ethyl-4-((5-(imidazo[1,2-a]pyrimidin-6-yl)-4-methoxypyrrolo[2,1-f][1,2,4]triazin-2-yl)amino)cyclohexan-1-ol]
IC50 [1]: 0.8 nM | EC50 [2]: 8.9 nM

COc1nc(NC2CC3(COC3)C2)nn2ccc(-c3cnc4nccn4c3)c12 [Compound 272, 5-(Imidazo[1,2-a]pyrimidin-6-yl)-4-methoxy-N-(2-oxaspiro[3.3]heptan-6-yl)pyrrolo[2,1-f][1,2,4]triazin-2-amine]
IC50 [1]: 1.3 nM | EC50 [2]: 13.4 nM

COc1nc(NC2CCC3(CC2)COC3)nn2ccc(-c3cnc4nccn4c3)c12 [Compound 276, 5-(Imidazo[1,2-a]pyrimidin-6-yl)-4-methoxy-N-(2-oxaspiro[3.5]nonan-7-yl)pyrrolo[2,1-f][1,2,4]triazin-2-amine]
IC50 [1]: 0.6 nM | EC50 [2]: 10.1 nM

COc1nc(N[C@H]2CCN(C)C[C@H]2F)nn2ccc(-c3ccc4ncccc4c3)c12 [Compound 310, N-((3R,4S)-3-Fluoro-1-methylpiperidin-4-yl)-4-methoxy-5-(quinolin-6-yl)pyrrolo[2,1-f][1,2,4]triazin-2-amine]
IC50 [1]: 4.7 nM | EC50 [2]: 109 nM

COc1nc(N[C@H]2CCN(C3COC3)C[C@H]2F)nn2ccc(-c3ccc4ncccc4c3)c12 [Compound 318, N-((3R,4S)-3-Fluoro-1-(oxetan-3-yl)piperidin-4-yl)-4-methoxy-5-(quinolin-6-yl)pyrrolo[2,1-f][1,2,4]triazin-2-amine]
IC50 [1]: 4.2 nM | EC50 [2]: 75.4 nM

COc1nc(N[C@@H]2CN(C(C)=O)C[C@@H]2F)nn2ccc(-c3ccc4nccnc4c3)c12 [Compound 352, 1-((3S,4R)-3-Fluoro-4-((4-methoxy-5-(quinoxalin-6-yl)pyrrolo[2,1-f][1,2,4]triazin-2-yl)amino)pyrrolidin-1-yl)ethan-1-one]
IC50 [1]: 2.2 nM | EC50 [2]: 39.4 nM

C[C@]1(O)CC[C@H](Nc2nc(OC3COC3)c3c(-c4ccc5nccnc5c4)ccn3n2)CC1 [Compound 392, trans-1-Methyl-4-((4-(oxetan-3-yloxy)-5-(quinoxalin-6-yl)pyrrolo[2,1-f][1,2,4]triazin-2-yl)amino)cyclohexan-1-ol]
IC50 [1]: 1.4 nM | EC50 [2]: 25.2 nM

COc1nc(N[C@H]2CC[C@](C)(O)CC2)nn2ccc(-c3cc(F)c4nccn4c3)c12 [Compound 431, (1r,4r)-4-((5-(8-Fluoroimidazo[1,2-a]pyridin-6-yl)-4-methoxypyrrolo[2,1-f][1,2,4]triazin-2-yl)amino)-1-methylcyclohexan-1-ol]
IC50 [1]: 2.3 nM | EC50 [2]: 129 nM

COc1nc(N[C@@H]2CCC(F)(F)C2)nn2ccc(-c3cnc4nccn4c3)c12 [Compound 943, (R)—N-(3,3-Difluorocyclopentyl)-5-(imidazo[1,2-a]pyrimidin-6-yl)-4-methoxypyrrolo[2,1-f][1,2,4]triazin-2-amine]
IC50 [1]: 3.6 nM | EC50 [2]: 57.5 nM
